According to patent publication US20230391772A1, “METHODS AND COMPOSITIONS FOR TARGETED PROTEIN DEGRADATION” (Ranok Therapeutics (Hangzhou) Co. Ltd., priority 2020, published 2023):

How the values were obtained:
HSP90a protein = target: T1, HSP90a protein (Homo sapiens, UniProt P07900); assay: HSP90α-binding fluorescent polarization (FP) assay, BODIPY-labeled RNK04010 probe; conditions: FP competition with RNK04010 (BODIPY-labeled), 5 nM, 300 min at 25° C.
T1 construct: purchased BPS Bioscience 50298
Description: HSP90α-Binding Fluorescent Polarization (FP) Assay
Binding of test compounds to HSP90a protein was measured by fluorescent polarization (FP) using the HSP90a (N-terminal) Assay Kit (BPS Bioscience, #50298), following the manufacturer's instructions, except as noted. Fluorescently labeled HSP90-binding compounds, either the provided FITC-geldanamycin (5 nM final concentration) or RNK04010, a triazolone-based HSP90 binding small molecule labeled with BODIPY through a piperizine-phenyl linker (5 nM final concentration) were employed. A 2.5-fold serial dilution of each test compound ranging from 20 μM to 5.2 nM was assayed for binding to HSP90a. After the final step of adding HSP90a protein to each assay well, plates were mixed by brief shaking, incubated at 25° C. for 120 min for FITC-geldanamycin or 300 min for RNK04010, and fluorescence was measured using a PerkinElmer EnVision Plate Reader.

[1] = system: MIA PaCa-2 human pancreatic carcinoma; assay: MIA PaCa-2 CCK-8 proliferation assay; assay type: cell-based; conditions: Homo sapiens, MIA PaCa-2, 72 h, MIA PaCa-2 cells
Description: The following cancer cell lines were employed: BT-474 human breast carcinoma (ATCC, #HTB-20); MIA PaCa-2 human pancreatic carcinoma [2 copies KRAS(G12C)](ATCC, #CRL-1420); NCI-H23 human non-small cell lung cancer [1 copy KRAS(G12C)](ATCC, #CRL-5800); NCI-H358 human non-small cell lung cancer [1 copy KRAS(G12C)](ATCC, #CRL-5807); LU65A human lung carcinoma (Pharmaron, Beijing, China). Cell lines were cultured essentially according to ATCC and Pharmaron recommendations.
Cancer Cell Line Proliferation (CCK-8) Assays
3-fold serial dilutions of each test compound were prepared ranging from 20 μM to 1.02 nM.
% Inhibition=100−(D−B)/(S−B)*100%. • S: Absorbance of cells treated with DMSO • D: Absorbance of compound-treated cells • B: Absorbance of medium with DMSO without cells

| IC50 (HSP90a protein) | EC50 [1] | Compound |
| --- | --- | --- |
| < 0.1 µM | 0.1 to 1 µM | C=CC(=O)N1CCN(c2nc(OC[C@@H]3CC[C@H](C(=O)N4CCN(C(=O)C5CCN(Cc6ccc(-n7c(O)nnc7-c7cc(C(C)C)c(O)cc7O)cc6)CC5)CC4)N3C)nc3c2CCN(c2cccc4cccc(Cl)c24)C3)C[C@@H]1CC#N [Compound 305, 2-[(2S)-4-[7-(8-chloronaphthalen-1-yl)-2-{[(2S,5R)-5-{4-[1-({4-[3-(2,4-dihydroxy-5-isopropylphenyl)-5-hydroxy-1,2,4-triazol-4-yl]phenyl}methyl)piperidine-4-carbonyl]piperazine-1-carbonyl}-1-methylpyrrolidin-2-yl]methoxy}-5H,6H,8H-pyri-do[3,4-d]pyrimidin-4-yl]-1-(prop-2-enoyl)piperazin-2-yl]acetonitrile] |
| – | < 0.1 µM | C=CC(=O)N1CCN(c2nc(OCC3(CN4CCN(Cc5ccc(-n6c(C(=O)NCC)nnc6-c6cc(C(C)C)c(O)cc6O)cc5)CC4)CC3)nc3c2CCN(c2cccc(C)c2C)C3)C[C@@H]1CC#N [Compound 291, 4-(4-{[4-({1-[({4-[(3S)-3-(cyanomethyl)-4-(prop-2-enoyl)piperazin-1-yl]-7-(2,3-dimethylphenyl)-5H,6H,8H-pyrido[3,4-d]pyrimidin-2-yl}oxy)methyl]cyclopropyl}-methyl)piperazin-1-yl]methyl}phenyl)-5-(2,4-dihydroxy-5-isopropylphenyl)-N-et-hyl-1,2,4-triazole-3-carboxamide] |
| < 0.1 µM | 0.1 to 1 µM | C=CC(=O)N1CCN(c2nc(OC[C@@H]3CN(C(=O)C4CCN(Cc5ccc(-n6c(C(=O)NCC(F)(F)F)nnc6-c6cc(C(C)C)c(O)cc6O)cc5)CC4)CCN3C)nc3c2CCN(c2cccc4cccc(Cl)c24)C3)C[C@@H]1CC#N [Compound 199, 4-(4-((4-((S)-3-(((4-((S)-4-acryloyl-3-(cyanomethyl)piperazin-1-yl)-7-(8-chloronaphthalen-1-yl)-5,6,7,8-tetrahydropyrido[3,4-d]pyrimidin-2-yl)oxy)methyl)-4-methylpiperazine-1-carbonyl)piperidin-1-yl)methyl)phenyl)-5-(2,4-dihydroxy-5-isopropylphenyl)-N-(2,2,2-trifluoroethyl)-4H-1,2,4-triazole-3-carboxamide] |
| > 1 µM | > 1 µM | C=CC(=O)N1CCN(c2nc(OC[C@@H]3CCN(C(=O)c4ccc(Nc5cc(-n6nc(C(F)(F)F)c7c6CC(C)(C)CC7=O)ccc5C(N)=O)cc4)C3)nc3c2CCN(c2cccc4cccc(Cl)c24)C3)C[C@@H]1CC#N [Compound 181, 2-((4-((R)-3-(((4-((S)-4-acryloyl-3-(cyanomethyl)piperazin-1-yl)-7-(8-chloronaphthalen-1-yl)-5,6,7,8-tetrahydropyrido[3,4-d]pyrimidin-2-yl)oxy)methyl)pyrrolidine-1-carbonyl)phenyl)amino)-4-(6,6-dimethyl-4-oxo-3-(trifluoromethyl)-4,5,6,7-tetrahydro-1H-indazol-1-yl)benzamide] |
| < 0.1 µM | > 1 µM | C=CC(=O)N1CCN(c2nc(OC[C@@H]3CC[C@H](C(=O)N4CCN(C(=O)C5CCN(Cc6ccc(-n7c(O)nnc7-c7cc(C)c(O)cc7O)cc6)CC5)CC4)N3C)nc3c2CCN(c2cccc4cccc(Cl)c24)C3)C[C@@H]1CC#N [Compound 306, 2-[(2S)-4-[7-(8-chloronaphthalen-1-yl)-2-{[(2S,5R)-5-{4-[1-({4-[3-(2,4-dihydroxy-5-methylphenyl)-5-hydroxy-1,2,4-triazol-4-yl]phenyl}methyl)piperidine-4-carbonyl]piperazine-1-carbonyl}-1-methylpyrrolidin-2-yl]methoxy}-5H,6H,8H-pyrido [3,4-d]pyrimidin-4-yl]-1-(prop-2-enoyl)piperazin-2-yl]acetonitrile] |
| < 0.1 µM | > 1 µM | C=C(F)C(=O)N1CCN(c2nc(OCCN3CCN(C(=O)c4ccc(-n5c(O)nnc5-c5cc(C(C)C)c(O)cc5O)cc4)CC3)nc3c2CCN(c2cccc4cccc(Cl)c24)C3)C[C@@H]1CC#N [Compound 226] |
| 0.1 to 1 µM | 0.1 to 1 µM | C=CC(=O)N1CCN(c2nc(OC[C@H]3CCN(C(=O)C4CCN(Cc5ccc(-n6c(O)nnc6-c6cc(C(C)C)c(O)cc6O)cc5)CC4)C3)nc3c2CCN(c2cccc4cccc(Cl)c24)C3)C[C@@H]1CC#N [Compound 184, 2-((S)-1-acryloyl-4-(7-(8-chloronaphthalen-1-yl)-2-(((S)-1-(1-(4-(3-(2,4-dihydroxy-5-isopropylphenyl)-5-hydroxy-4H-1,2,4-triazol-4-yl)benzyl)piperidine-4-carbonyl)pyrrolidin-3-yl)methoxy)-5,6,7,8-tetrahydropyrido[3,4-d]pyrimidin-4-yl)piperazin-2-yl)acetonitrile] |
| < 0.1 µM | > 1 µM | C=CC(=O)N1CCN(c2nc(OC[C@@H]3C[C@@H](NC(=O)C4CCN(Cc5ccc(-n6c(C(=O)NCCN(CC)CC)nnc6-c6cc(C(C)C)c(O)cc6O)cc5)CC4)CN3C)nc3c2CCN(c2cccc4cccc(Cl)c24)C3)C[C@@H]1CC#N [Compound 204, N-((3R,5S)-5-(((4-((S)-4-acryloyl-3-(cyanomethyl)piperazin-1-yl)-7-(8-chloronaphthalen-1-yl)-5,6,7,8-tetrahydropyrido[3,4-d]pyrimidin-2-yl)oxy)methyl)-1-methylpyrrolidin-3-yl)-1-(4-(3-((2-(diethylamino)ethyl)carbamoyl)-5-(2,4-dihydroxy-5-isopropylphenyl)-4H-1,2,4-triazol-4-yl)benzyl)piperidine-4-carboxamide] |
| – | 0.1 to 1 µM | C=CC(=O)N1CCN(c2nc(OCC3(CN4CCN(Cc5ccc(-n6c(O)nnc6-c6cc(C(C)C)c(O)cc6O)cc5)CC4)CC3)nc3c2CCN(c2cccc(C)c2C)C3)C[C@@H]1CC#N [Compound 292, 2-[(2S)-4-{2-[(1-{[4-({4-[3-(2,4-dihydroxy-5-isopropylphenyl)-5-hydroxy-1,2,4-triazol-4-yl]phenyl}methyl)piperazin-1-yl]methyl}cyclopropyl)methoxy]-7-(2,3-dimethylphenyl)-5H,6H,8H-pyrido[3,4-d]pyrimidin-4-yl}-1-(prop-2-enoyl)piperazin-2-yl]acetonitrile] |
| 0.1 to 1 µM | – | C=CC(=O)N1CCN(c2nc(NCCC(=O)NCc3ccc(CN4CCC(Cc5ccc(-n6c(C(=O)NC(C)C)nnc6-c6cc(C(C)C)c(O)cc6O)cc5)CC4)cc3)nc3c2CCN(c2cc(O)cc4ccccc24)C3)CC1 [Compound 126, 4-(4-((1-(4-((3-((4-(4-acryloylpiperazin-1-yl)-7-(3-hydroxynaphthalen-1-yl)-5,6,7,8-tetrahydropyrido[3,4-d]pyrimidin-2-yl)amino)propanamido)methyl)benzyl)piperidin-4-yl)methyl)phenyl)-5-(2,4-dihydroxy-5-isopropylphenyl)-N-isopropyl-4H-1,2,4-triazole-3-carboxamide, trifluoroacetic acid] |
| 0.1 to 1 µM | – | CC(C)c1cc(-c2nnc(O)n2-c2ccc(CN3CCC(C(=O)N4CC[C@@H](COc5nc6c(c(N7CCN(C(=O)C(F)(F)F)[C@@H](CC#N)C7)n5)CCN(c5cccc7cccc(Cl)c57)C6)C4)CC3)cc2)c(O)cc1O [Compound 177, 2-((S)-4-(7-(8-chloronaphthalen-1-yl)-2-(((R)-1-(1-(4-(3-(2,4-dihydroxy-5-isopropylphenyl)-5-hydroxy-4H-1,2,4-triazol-4-yl)benzyl)piperidine-4-carbonyl)pyrrolidin-3-yl)methoxy)-5,6,7,8-tetrahydropyrido[3,4-d]pyrimidin-4-yl)-1-(2,2,2-trifluoroacetyl)piperazin-2-yl)acetonitrile] |
| > 1 µM | – | C=CC(=O)N1CCN(c2nc(OC[C@@H]3CCN(C(=O)c4ccc5c(c4)CN(C(=O)c4cc(CC)c(O)cc4O)C5)C3)nc3c2CCN(c2cccc4cccc(Cl)c24)C3)C[C@@H]1CC#N [Compound 176, 2-((S)-1-acryloyl-4-(7-(8-chloronaphthalen-1-yl)-2-(((R)-1-(2-(5-ethyl-2,4-dihydroxybenzoyl)isoindoline-5-carbonyl)pyrrolidin-3-yl)methoxy)-5,6,7,8-tetrahydropyrido[3,4-d]pyrimidin-4-yl)piperazin-2-yl)acetonitrile] |
| > 1 µM | – | C=CC(=O)N1CCN(c2nc(OC[C@@H]3CCN(C(=O)c4ccc5c(c4)CN(C(=O)c4cc(C(C)C)c(O)cc4O)C5)C3)nc3c2CCN(c2cccc4cccc(Cl)c24)C3)C[C@@H]1CC#N [Compound 175, 2-((S)-1-acryloyl-4-(7-(8-chloronaphthalen-1-yl)-2-(((R)-1-(2-(2,4-dihydroxy-5-isopropylbenzoyl)isoindoline-5-carbonyl)pyrrolidin-3-yl)methoxy)-5,6,7,8-tetrahydropyrido[3,4-d]pyrimidin-4-yl)piperazin-2-yl)acetonitrile] |
